This is an account of results in US20260035359A1, “HERBICIDAL IMIDAZOLE COMPOUNDS” (SYNGENTA CROP PROTECTION AG, priority 2022, published 2026).

Assay type in all cases: in vivo
Assay [1] relates to Amaranthus pa/meri (AMAPA). Description: Post-emergence herbicidal glasshouse test. Conditions: 250 g/ha, sprayed after 8 days cultivation, evaluated after 13 days. Here is the method:
(§1) Seeds of a variety of test species are sown in standard soil in pots Amaranthus pa/meri (AMAPA), Amaranthus retoflexus (AMARE), Echinochloa crus-gali (ECHCG), Ipomoea hederacea (IPOHE), Setaria faberi (SETFA). After cultivation for one day (pre-emergence) or after 8 days cultivation (post-emergence) under controlled conditions in a glasshouse (at 24/16° C., day/night; 14 hours light; 65% humidity), the plants are sprayed with an aqueous spray solution derived from the formulation of the technical active ingredient in acetone/water (50:50) solution containing 0.5% Tween 20 (polyoxyethelyene sorbitan monolaurate, CAS RN 9005-64-5). Compounds are applied at 250 g/ha unless otherwise stated. The test plants are then grown in a glasshouse under controlled conditions in a glasshouse (at 24/16° C., day/night; 14 hours light; 65% humidity) and watered twice daily. After 13 days for pre and post-emergence, the test is evaluated for the percentage damage caused to the plant. The biological activities are shown in the following table on a five-point scale (5=81-100%; 4=61-80%; 3=41-60%; 2=21-40%; 1=0-20%).

For assay [2], the system named is Amaranthus retoflexus (AMARE). Description: Post-emergence herbicidal glasshouse test. Conditions: 250 g/ha, sprayed after 8 days cultivation, evaluated after 13 days. Here is the method:
as §1

For assay [3], the system named is Echinochloa crus-gali (ECHCG). Description: Post-emergence herbicidal glasshouse test. Particulars: 250 g/ha, sprayed after 8 days cultivation, evaluated after 13 days. The method, then: as §1
For assay [4], the system named is Ipomoea hederacea (IPOHE). Put plainly: Post-emergence herbicidal glasshouse test. Particulars: 250 g/ha, sprayed after 8 days cultivation, evaluated after 13 days. Here is the method:
as §1

For assay [5], the system named is Setaria faberi (SETFA). Description: Post-emergence herbicidal glasshouse test. Conditions: 250 g/ha, sprayed after 8 days cultivation, evaluated after 13 days. Here is the method:
as §1

For assay [6], the system named is Amaranthus pa/meri (AMAPA). Put plainly: Pre-emergence herbicidal glasshouse test. Conditions: 250 g/ha, sprayed after one day cultivation, evaluated after 13 days. Here is the method:
as §1

Assay [7] concerns Amaranthus retoflexus (AMARE). Put plainly: Pre-emergence herbicidal glasshouse test. Conditions: 250 g/ha, sprayed after one day cultivation, evaluated after 13 days. The method, then:
as §1

Assay [8] concerns Echinochloa crus-gali (ECHCG). Description: Pre-emergence herbicidal glasshouse test. Conditions: 250 g/ha, sprayed after one day cultivation, evaluated after 13 days. The method, then:
as §1

Assay [9] deals with Ipomoea hederacea (IPOHE). Put plainly: Pre-emergence herbicidal glasshouse test. Particulars: 250 g/ha, sprayed after one day cultivation, evaluated after 13 days. Here is the method: as §1
The test system of assay [10] is Setaria faberi (SETFA). Put plainly: Pre-emergence herbicidal glasshouse test. Particulars: 250 g/ha, sprayed after one day cultivation, evaluated after 13 days. Here is the method:
as §1

On to `FC(F)(F)CCCc1nc(Br)cn1Cc1ncc(Cl)cn1` [Compound 1.003, 2-[[4-bromo-2-(4,4,4-trifluorobutyl)imidazol-1-yl]methyl]-5-chloro-pyrimidine], for which the “percentage damage caused to the plant, AMAPA” value in [1] was 2 (2=21-40%); in [6], 1 (1=0-20%). In addition, the entries for the “percentage damage caused to the plant, AMARE” value in assay [2] and in assay [7] were 2 (2=21-40%) and 1 (1=0-20%), respectively. The “percentage damage caused to the plant, ECHCG” value in [3] and in [8] was 1 (1=0-20%) each time. In addition, the “percentage damage caused to the plant, IPOHE” value in [4] and in [9] was 2 (2=21-40%) each time. The “percentage damage caused to the plant, SETFA” value in the assay on Setaria faberi (SETFA) [5] and in the assay on Setaria faberi (SETFA) [10] was 1 (1=0-20%) throughout.
On to `FC(F)COCc1nc(C(F)(F)F)cn1Cc1ncc(Cl)cn1` [Compound 1.022], for which the “percentage damage caused to the plant, AMAPA” value is 3 (3=41-60%) in assay [1] and 2 (2=21-40%) in assay [6]. The “percentage damage caused to the plant, AMARE” value in assay [2] and in assay [7] was 3 (3=41-60%) in each case. For the same molecule, the “percentage damage caused to the plant, ECHCG” value in assay [3] and in [8] was 1 (1=0-20%) throughout. For the same molecule, the “percentage damage caused to the plant, IPOHE” value is 3 (3=41-60%) in [4] and 4 (4=61-80%) in [9]. Also, the “percentage damage caused to the plant, SETFA” value with Setaria faberi (SETFA) [5] and with Setaria faberi (SETFA) [10] was 1 (1=0-20%) throughout.
In the case of `N#CC1(c2nc(C(F)(F)F)cn2Cc2ncc(Cl)cc2F)CC1` [Compound 1.069], the “percentage damage caused to the plant, AMAPA” value in [1] and in [6] was 4 (4=61-80%) each time. Besides, the results for the “percentage damage caused to the plant, AMARE” value in assay [2] and in assay [7] were 4 (4=61-80%) and 5 (5=81-100%), respectively. In addition, the “percentage damage caused to the plant, ECHCG” value in assay [3] and in assay [8] was 1 (1=0-20%) in each case. In addition, the “percentage damage caused to the plant, IPOHE” value in assay [4] and in assay [9] was 4 (4=61-80%) each time. Besides, the “percentage damage caused to the plant, SETFA” value with Setaria faberi (SETFA) [5] and in the assay with Setaria faberi (SETFA) [10] was 1 (1=0-20%) in each case.
Take `CC(C)(O)CCc1nc(C(F)(F)F)cn1Cc1ncc(Cl)cn1` [Compound 1.086]: the “percentage damage caused to the plant, AMAPA” value in assay [1] was 2 (2=21-40%); in assay [6] it was 1 (1=0-20%). Besides, the “percentage damage caused to the plant, AMARE” value is 2 (2=21-40%) in [2] and 1 (1=0-20%) in assay [7]. For the same molecule, the “percentage damage caused to the plant, ECHCG” value in assay [3] and in assay [8] was 1 (1=0-20%) throughout. In addition, the “percentage damage caused to the plant, IPOHE” value in assay [4] and in assay [9] was 3 (3=41-60%) in each case. For the same molecule, the “percentage damage caused to the plant, SETFA” value in the assay on Setaria faberi (SETFA) [5] and with Setaria faberi (SETFA) [10] was 1 (1=0-20%) throughout.
`CSCCc1nc(C(F)(F)F)cn1Cc1ncc(Cl)cn1` [Compound 1.083]: the “percentage damage caused to the plant, AMAPA” value in assay [1] and in [6] was 3 (3=41-60%) in each case. Moreover, the “percentage damage caused to the plant, AMARE” value in [2] and in [7] was 4 (4=61-80%) each time. Further, the “percentage damage caused to the plant, ECHCG” value in assay [3] and in assay [8] was 1 (1=0-20%) each time. In addition, the “percentage damage caused to the plant, IPOHE” value in assay [4] is 4 (4=61-80%); in [9], 5 (5=81-100%). The “percentage damage caused to the plant, SETFA” value in the assay on Setaria faberi (SETFA) [5] and in the assay with Setaria faberi (SETFA) [10] was 1 (1=0-20%) each time.
With `COCc1nc(C(F)(F)F)cn1Cc1ncc(Cl)cn1` [Compound 1.023], the “percentage damage caused to the plant, AMAPA” value in assay [1] is recorded as 1 (1=0-20%); in assay [6], 2 (2=21-40%). Besides, the “percentage damage caused to the plant, AMARE” value is on record as 1 (1=0-20%) in assay [2] and 2 (2=21-40%) in assay [7]. Also, the “percentage damage caused to the plant, ECHCG” value in assay [3] and in assay [8] was 1 (1=0-20%) each time. The results for the “percentage damage caused to the plant, IPOHE” value in assay [4] and in assay [9] were 2 (2=21-40%) and 1 (1=0-20%), respectively. Further, the “percentage damage caused to the plant, SETFA” value in the assay with Setaria faberi (SETFA) [5] and in the assay with Setaria faberi (SETFA) [10] was 1 (1=0-20%) throughout.
In the case of `CC(=O)CCc1nc(C(F)(F)F)cn1Cc1ncc(Cl)cn1` [Compound 1.027], the “percentage damage caused to the plant, AMAPA” value in assay [1] is 2 (2=21-40%); in assay [6] it was 1 (1=0-20%). Moreover, the “percentage damage caused to the plant, AMARE” value in [2] is listed as 2 (2=21-40%); in assay [7], 4 (4=61-80%). The “percentage damage caused to the plant, ECHCG” value in assay [3] and in [8] was 1 (1=0-20%) each time. In addition, the entries for the “percentage damage caused to the plant, IPOHE” value in assay [4] and in assay [9] were 2 (2=21-40%) and 1 (1=0-20%), respectively. The “percentage damage caused to the plant, SETFA” value with Setaria faberi (SETFA) [5] and with Setaria faberi (SETFA) [10] was 1 (1=0-20%) each time.
With `OCC(O)CCc1nc(C(F)(F)F)cn1Cc1ncc(Cl)cn1` (centres unmarked) [Compound 1.011, 4-[1-[(5-chloropyrimidin-2-yl)methyl]-4-(trifluoromethyl)imidazol-2-yl]butane-1,2-diol], the “percentage damage caused to the plant, AMAPA” value in assay [1] is reported as 2 (2=21-40%); in assay [6], 1 (1=0-20%). The “percentage damage caused to the plant, AMARE” value was 2 (2=21-40%) in assay [2] and 1 (1=0-20%) in [7]. Also, the “percentage damage caused to the plant, ECHCG” value in [3] and in assay [8] was 1 (1=0-20%) each time. Moreover, the “percentage damage caused to the plant, IPOHE” value in assay [4] was 3 (3=41-60%); in assay [9], 1 (1=0-20%). The “percentage damage caused to the plant, SETFA” value in the assay on Setaria faberi (SETFA) [5] and in the assay with Setaria faberi (SETFA) [10] was 1 (1=0-20%) each time.
Turning to `C#Cc1nc(C(F)(F)F)cn1Cc1ncc(Cl)cn1` [Compound 1.084], the “percentage damage caused to the plant, AMAPA” value was 2 (2=21-40%) in assay [1] and 1 (1=0-20%) in assay [6]. In addition, the “percentage damage caused to the plant, AMARE” value in [2] and in assay [7] was 2 (2=21-40%) throughout. In addition, the “percentage damage caused to the plant, ECHCG” value in assay [3] and in assay [8] was 1 (1=0-20%) each time. Also, the “percentage damage caused to the plant, IPOHE” value in assay [4] and in assay [9] was 1 (1=0-20%) throughout. Also, the “percentage damage caused to the plant, SETFA” value in the assay with Setaria faberi (SETFA) [5] and in the assay with Setaria faberi (SETFA) [10] was 1 (1=0-20%) throughout.
`FC(F)(F)CCCc1nc(Cl)cn1Cc1ncc(Cl)cn1` [Compound 1.001, 5-chloro-2-[[4-chloro-2-(4,4,4-trifluorobutyl)imidazol-1-yl]methyl]pyrimidine]: the “percentage damage caused to the plant, AMAPA” value in [1] and in assay [6] was 2 (2=21-40%) throughout. Also, the “percentage damage caused to the plant, AMARE” value in [2] is listed as 2 (2=21-40%); in assay [7] it was 1 (1=0-20%). Further, the “percentage damage caused to the plant, ECHCG” value in assay [3] and in assay [8] was 1 (1=0-20%) throughout. The “percentage damage caused to the plant, IPOHE” value in assay [4] is listed as 2 (2=21-40%); in assay [9] it was 1 (1=0-20%). The “percentage damage caused to the plant, SETFA” value in the assay on Setaria faberi (SETFA) [5] and in the assay on Setaria faberi (SETFA) [10] was 1 (1=0-20%) throughout.
Turning to `FC(F)(F)c1cn(Cc2ncc(Cl)cn2)c(CCl)n1` [Compound 1.071, 5-chloro-2-[[2-(chloromethyl)-4-(trifluoromethyl)imidazol-1-yl]methyl]pyrimidine], the “percentage damage caused to the plant, AMAPA” value in assay [1] is listed as 1 (1=0-20%); in [6], 2 (2=21-40%). Further, the “percentage damage caused to the plant, AMARE” value is given as 1 (1=0-20%) in assay [2] and 3 (3=41-60%) in [7]. Further, the “percentage damage caused to the plant, ECHCG” value in [3] and in assay [8] was 1 (1=0-20%) throughout. In addition, the “percentage damage caused to the plant, IPOHE” value in assay [4] and in [9] was 1 (1=0-20%) throughout. Besides, the “percentage damage caused to the plant, SETFA” value with Setaria faberi (SETFA) [5] and in the assay with Setaria faberi (SETFA) [10] was 1 (1=0-20%) each time.
